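Briefly, cells in 96-well plates were exposed to five compound concentrations for 48 h, and endpoints were estimated by linear interpolation. GI50 marks 50% less growth.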 Activity calls are given as the source filed them. Rule as the data show it: active = GI50 up to about 1.1 µM and inactive = higher.
Assays:
Experiment in all cases: NCI-60 cell line screen, 48 h
A498 = tested on: A498
ACHN = tested on: ACHN
CCRF-CEM = tested on: CCRF-CEM
DU-145 = tested on: DU-145
EKVX = tested on: EKVX
HCC 2998 = tested on: HCC 2998
HCT-116 = tested on: HCT-116
M14 = tested on: M14
MCF7 = tested on: MCF7
MDA-MB-231 = tested on: MDA-MB-231
NCI-H23 = tested on: NCI-H23
NCI/ADR-RES = tested on: NCI/ADR-RES
OVCAR-8 = tested on: OVCAR-8
SF-539 = tested on: SF-539
SNB-19 = tested on: SNB-19
SNB-75 = tested on: SNB-75
TK-10 = tested on: TK-10
MDA-N = tested on: MDA-N
SN12C = tested on: SN12C
SR = tested on: SR

Measured: GI50

O=C1CC(c2cccc(Cl)c2)Oc2ccccc21 (centres undefined)
inactive: A498 24.7 µM | ACHN 16.2 µM | CCRF-CEM 10.1 µM | DU-145 17.7 µM | EKVX 14.8 µM | HCC 2998 15.4 µM | HCT-116 15.9 µM | M14 18.1 µM | MCF7 6.4 µM | MDA-MB-231 34.5 µM | NCI-H23 10.2 µM | NCI/ADR-RES 26.2 µM | OVCAR-8 29.2 µM | SF-539 18.2 µM | SNB-19 15.3 µM | SNB-75 22.6 µM | TK-10 > 10 µM

COc1cc(OC)nc(Nc2c(C#N)c3nc4ccccc4n3c3ccccc23)n1
inactive: ACHN 18.7 µM | CCRF-CEM > 100 µM | DU-145 > 100 µM | EKVX 72.3 µM | HCC 2998 > 100 µM | HCT-116 29.6 µM | M14 > 100 µM | MCF7 22.2 µM | MDA-N > 100 µM | NCI-H23 32.1 µM | NCI/ADR-RES 29.8 µM | OVCAR-8 34.9 µM | SF-539 17.6 µM | SNB-19 25.1 µM | SNB-75 16.4 µM | TK-10 26.5 µM

CN(C)c1nc(Cl)c2c(-c3ccccc3)c(-c3ccccc3)oc2n1
inactive: A498 > 100 µM | ACHN 70 µM | CCRF-CEM 28.1 µM | DU-145 52.4 µM | EKVX > 100 µM | HCC 2998 64.6 µM | HCT-116 31.2 µM | M14 > 100 µM | MCF7 28.9 µM | MDA-MB-231 43 µM | NCI-H23 41.3 µM | NCI/ADR-RES 82.4 µM | OVCAR-8 > 100 µM | SF-539 48 µM | SN12C 39.5 µM | SNB-19 > 100 µM | SNB-75 35.8 µM | SR 21.8 µM | TK-10 > 100 µM

COP(=O)(CP(=O)(OC)OCCC(C)CCC=C(C)C)OC (centres undefined)
inactive: A498 > 100 µM | ACHN > 100 µM | CCRF-CEM > 100 µM | EKVX > 100 µM | HCC 2998 > 100 µM | HCT-116 > 100 µM | M14 > 100 µM | MCF7 > 100 µM | MDA-MB-231 19.1 µM | MDA-N > 100 µM | NCI-H23 > 100 µM | NCI/ADR-RES > 100 µM | OVCAR-8 > 100 µM | SF-539 > 100 µM | SN12C > 100 µM | SNB-19 > 100 µM | SNB-75 > 100 µM | TK-10 > 100 µM

CC1=C(C)C(=O)C(C2=CC(=O)c3ccccc3C2=O)=C(C2=CC(=O)c3ccccc3C2=O)C1=O
inactive: A498 23.4 µM | ACHN 3.27 µM | DU-145 3.21 µM | EKVX 19.3 µM | HCC 2998 6.95 µM | HCT-116 3.6 µM | M14 8.49 µM | MCF7 1.88 µM | MDA-MB-231 4.52 µM | NCI-H23 8.13 µM | NCI/ADR-RES 1.68 µM | OVCAR-8 3.64 µM | SF-539 6.35 µM | SN12C 2.61 µM | SNB-19 4.54 µM | SNB-75 13.2 µM | TK-10 3.38 µM
active: MDA-N 0.82 µM

O=C1OC(c2ccc([N+](=O)[O-])cc2)=N/C1=C\c1ccc(Cl)cc1
inactive: A498 > 100 µM | ACHN > 100 µM | CCRF-CEM > 100 µM | DU-145 > 100 µM | EKVX > 100 µM | HCC 2998 > 100 µM | HCT-116 > 100 µM | M14 > 100 µM | MCF7 > 100 µM | MDA-MB-231 > 100 µM | MDA-N > 100 µM | NCI-H23 > 100 µM | OVCAR-8 > 100 µM | SF-539 > 100 µM | SN12C > 100 µM | SNB-19 > 100 µM | SNB-75 > 100 µM | SR > 100 µM | TK-10 > 100 µM

Nc1cccc(S(=O)(=O)Nc2nnc(S(N)(=O)=O)s2)c1
inactive: A498 > 100 µM | ACHN > 100 µM | DU-145 > 100 µM | EKVX > 100 µM | HCC 2998 > 100 µM | HCT-116 > 100 µM | M14 > 100 µM | MCF7 > 100 µM | MDA-MB-231 > 100 µM | NCI-H23 > 100 µM | NCI/ADR-RES > 100 µM | OVCAR-8 > 100 µM | SF-539 > 100 µM | SNB-19 > 100 µM | SNB-75 > 100 µM | SR > 100 µM | TK-10 > 100 µM

— ChEMBL document CHEMBL1201862, “PubChem BioAssay data set” (2004)
